Test results published in PubChem BioAssay (NCI).
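The concentration for 50% growth inhibition is given as GI50. At the TGI there is no net growth.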

Experiments:
Assay in all cases: NCI-60 cell line screen, 384-well format
MOLT-4 leukemia = system: MOLT-4 leukemia
NCI-H226 lung = system: NCI-H226 lung
NCI-H23 lung = system: NCI-H23 lung
NCI-H322M lung = system: NCI-H322M lung
NCI-H460 NSCLC = system: NCI-H460 NSCLC
NCI-H522 lung = system: NCI-H522 lung
NCI/ADR-RES ovarian = system: NCI/ADR-RES ovarian
OVCAR-3 ovarian = system: OVCAR-3 ovarian
OVCAR-4 ovarian = system: OVCAR-4 ovarian
OVCAR-8 ovarian = system: OVCAR-8 ovarian
PC-3 prostate = system: PC-3 prostate
RPMI-8226 leukemia = system: RPMI-8226 leukemia
RXF 393 renal = system: RXF 393 renal
SF-268 CNS = system: SF-268 CNS
SF-295 CNS = system: SF-295 CNS
SF-539 CNS = system: SF-539 CNS
SK-MEL-2 melanoma = system: SK-MEL-2 melanoma
SK-MEL-28 melanoma = system: SK-MEL-28 melanoma
SK-MEL-5 melanoma = system: SK-MEL-5 melanoma
SK-OV-3 ovarian = system: SK-OV-3 ovarian
SN12C renal = system: SN12C renal
SNB-19 CNS = system: SNB-19 CNS
SNB-75 CNS = system: SNB-75 CNS
SW-620 colon = system: SW-620 colon
TK-10 renal = system: TK-10 renal
U251 glioblastoma = system: U251 glioblastoma
UACC-257 melanoma = system: UACC-257 melanoma
UACC-62 melanoma = system: UACC-62 melanoma

Work on Cc1ccc(S(=O)(=O)Oc2ccc3sc4c(CO)ccc(NCCN(C)C)c4c(=O)c3c2)cc1 yielded a TGI (MOLT-4 leukemia) of 3.18 µM, a GI50 (NCI-H226 lung) of 1470 nM and a TGI (NCI-H226 lung) of 2800 nM. The GI50 (NCI-H23 lung) was 2030 nM, the TGI (NCI-H23 lung) was 3.46 µM and the GI50 (NCI-H322M lung) was 2120 nM. It also gave a TGI (NCI-H322M lung) of 3.57 µM, a GI50 (NCI-H460 NSCLC) of 1900 nM and a TGI (NCI-H460 NSCLC) of 3.34 µM. It also gave a GI50 (NCI-H522 lung) of 2200 nM, a TGI (NCI-H522 lung) of 3.66 µM and a GI50 (NCI/ADR-RES ovarian) of 2060 nM. It also gave a TGI (NCI/ADR-RES ovarian) of 3.5 µM, a GI50 (OVCAR-3 ovarian) of 1970 nM and a TGI (OVCAR-3 ovarian) of 3.39 µM. For the same compound, the GI50 (OVCAR-4 ovarian) was 2240 nM, the TGI (OVCAR-4 ovarian) was 3.7 µM and the GI50 (OVCAR-8 ovarian) was 1630 nM. For the same compound, the TGI (OVCAR-8 ovarian) was 3.02 µM, the GI50 (PC-3 prostate) was 2010 nM and the TGI (PC-3 prostate) was 3.45 µM. It also gave a GI50 (RPMI-8226 leukemia) of 1920 nM, a TGI (RPMI-8226 leukemia) of 3.33 µM and a GI50 (RXF 393 renal) of 1990 nM. For the same compound, the TGI (RXF 393 renal) was 3.42 µM, the GI50 (SF-268 CNS) was 2200 nM and the TGI (SF-268 CNS) was 3.66 µM. It also gave a GI50 (SF-295 CNS) of 1960 nM, a TGI (SF-295 CNS) of 3.38 µM and a GI50 (SF-539 CNS) of 2080 nM. The TGI (SF-539 CNS) was 3.54 µM, the GI50 (SK-MEL-2 melanoma) was 2070 nM and the TGI (SK-MEL-2 melanoma) was 3.51 µM. The GI50 (SK-MEL-28 melanoma) was 2160 nM, the TGI (SK-MEL-28 melanoma) was 3.62 µM and the GI50 (SK-MEL-5 melanoma) was 1640 nM. The TGI (SK-MEL-5 melanoma) was 3.02 µM, the GI50 (SK-OV-3 ovarian) was 1940 nM and the TGI (SK-OV-3 ovarian) was 3.38 µM. For the same compound, the GI50 (SN12C renal) was 1640 nM, the TGI (SN12C renal) was 3.01 µM and the GI50 (SNB-19 CNS) was 2210 nM. The TGI (SNB-19 CNS) was 3.69 µM, the GI50 (SNB-75 CNS) was 2350 nM and the TGI (SNB-75 CNS) was 3.82 µM. The GI50 (SW-620 colon) was 1840 nM, the TGI (SW-620 colon) was 3.27 µM and the GI50 (TK-10 renal) was 1990 nM. The TGI (TK-10 renal) was 3.41 µM, the GI50 (U251 glioblastoma) was 2220 nM and the TGI (U251 glioblastoma) was 3.7 µM. For the same compound, the GI50 (UACC-257 melanoma) was 2840 nM, the TGI (UACC-257 melanoma) was 4.32 µM and the GI50 (UACC-62 melanoma) was 2100 nM. The TGI (UACC-62 melanoma) was 3.56 µM.
